From patent publication US11053185B2, “Dendritic polyethylene glycol derivative, and preparation method and application thereof” (JENKEM TECHNOLOGY CO., LTD. (TIANJIN), priority 2017, dated 2021)

Assay: Comparison of solubility of derivatives in water
Assay type: physicochemical
Conditions: shaken vigorously every 5 minutes for 30 seconds until clear
Experimental: Then the solution was shaken vigorously every 5 minutes for 30 seconds. After 30 minutes, the solution was turbid. Another 1.5 mL of water was added and the solution was shaken vigorously every 5 minutes for 30 seconds, and the solution became clear until 9 mL of water was totally added.
24.2 mg of the cholesterol derivative of the mEG7-OH prepared in Example 9 was dispersed in 50 mL of water, and 5 mL of the mixture was taken out and added with 1.5 mL of water. Then the solution was shaken vigorously every 5 minutes for 30 seconds. After 30 minutes, the solution became turbid. Another 5 mL of water was added and the solution was shaken vigorously every 5 minutes for 30 seconds until 25 mL of water was totally added. 5 mL of the solution was taken out from the diluted solution and operated similarly, and the solution became clear until 10 mL of water was added.
(§1) 111.0 mg of the hexadecanol derivative of the ((mEG3)2-N—C3H6)2—N—C3H6—OH prepared in Example 8 was dispersed in 50 μL of water, and shaken vigorously every 5 minutes for 30 seconds. After 30 minutes, the solution became clear. Another 50 μL of water was added and the solution was shaken vigorously every 5 minutes for 30 seconds, and the solution was still clear until 1.025 mL of water was added.
as §1, with “112.9” for “111.0”, “mEG7-OH” for “((mEG3)2-N—C3H6)2—N—C3H6—OH”, “9” for “8”, “was turbid.” for “became clear.”, “became” for “was still”, “250 μL” for “1.025 mL”
After 30 minutes, the solution was clear. Another 50 μL of water was added and the solution was shaken vigorously every 5 minutes for 30 seconds, and the solution was still clear until 1.025 mL of water was added.
After 30 minutes, the solution was turbid. Another 50 μL of water was added and the solution was shaken vigorously every 5 minutes for 30 seconds. After 30 minutes, the solution became clear.

Solubility in water	Solubility in water (listed as cholesterol)	Solubility in water (listed as hexadecanol)	Solubility in water (listed as menthol)	SMILES
Less than 0.2 mg/ mg/100 g H2O	less than 0.2 mg/100 g H2O			CC(C)CCC[C@@H](C)[C@H]1CC[C@H]2[C@@H]3CC=C4C[C@@H](O)CC[C@]4(C)[C@H]3CC[C@]12C [Cholesterol, cholesterol]
Less than 1 mg/ mg/100 g H2O		less than 1 mg/100 g H2O		CCCCCCCCCCCCCCCCO [Hexadecanol, hexadecanol]
Less than 100 mg/ mg/100 g H2O			less than 100 mg/100 g H2O	CC1CCC(C(C)C)C(O)C1 (stereo not drawn) [Menthol, menthol]
